# Results reported in patent publication US8912144B2, “Method for treating stroke via administration of NEP1-40 and inosine” (Children's Medical Center Corporation, priority 2003, dated 2014).
# Test system: corticospinal neurons (CSNs/CSMNs)
# Assay: Laser-capture microdissection and Illumina microarray gene expression in corticospinal neurons contralateral to stroke
# Assay type: in vivo, rat
# Procedure: In a separate group of animals (n=20), layer V pyramidal cells of the sensorimotor cortex were retrogradely labeled by injecting Alexa-Fluor-488-conjugated cholera toxin B subunit (CTB; 300 U/μl in sterile saline) into the cervical spinal cord. For this, animals were anesthetized with a combination of ketamine and Domitor (medetomidine) and a laminectomy was performed at the cervical level of the spinal cord (C2-C4). CTB was stereotaxically delivered into four sites lateral to the corticospinal tract. Injections (1.3 μl) were spaced 1 mm apart on the rostro-caudal axis, and were made 0.5 mm to the left and right of the midline. After allowing two weeks for transport of the tracer, we performed either sham surgery with no treatment (n=6) or stroke surgery combined with saline (n=3) or inosine (n=4) treatment as described above. Seven days later, animals were decapitated under transient gas anesthesia, brains were removed and rinsed in cold RPMI medium, and a tissue block containing the sensorimotor cortex was dissected and placed in OCT Tissue Tek Medium (Sakura Finetek USA Inc., CA) on dry ice within five minutes of death. Ten μm sections were cut onto precleaned Gold Seal RITE-ON glass slides (Gold Seal Prod-ucts, Portsmouth, N.H.), placed on dry ice, and rapidly stored at −80° C.
# Slide-mounted sections were thawed and dehydrated in RNAse-free ethanol gradients and xylene. Retro-gradely labeled, fluorescent cortical pyramidal cells in the undamaged hemisphere were individually captured using the Arcturus VERITAS system. ≧500 cells were collected from each animal and stored in Arcturus extraction buffer at −80° C. Total RNA was extracted from cells using the Micro-to-Midi TotalRNA Purification System (Invitrogen, Carlsbad Calif.) and double-amplified using the TargetAmp 2-Round Aminoallyl-aRNA Amplification kit 1.0 (Epicentre, Madison, Wis.). Amplified RNA was checked for average fragment length using the Agilent RNA 6000 Nano LabChip kit (Agilent Technologies, Santa Clara, Calif.) and then biotinylated and hybridized (1 μg) on Illumina RatRef-12 Expression BeadChip arrays (Illumina, San Diego Calif.), querying the expression of >22,000 RefSeq-curated rat transcripts. Results were obtained from a total of 15 samples representing 6 untreated controls, 4 animals with stroke treated with saline and 5 animals with stroke treated with inosine. Slides were processed and scanned with Illumina BeadStation platform according to the manufacturer protocol.
# Raw data was analyzed using Bioconductor packages (www.bioconductor.org, (Gentleman et al., 2004)). Low level quality-control analysis was performed using inter-array Pearson correlation and clustering based on variance. Two arrays (1 saline and 1 inosine-treated) were outliers and were excluded from the analysis. Data was normalized using quantile normalization, and analysis of differential expression was performed using a linear model fitting (LIMMA package, (Smyth, 2005). Differentially expressed genes were classified according to gene ontology using Bioconductor packages and online tools (DAVID, http://david.abcc.ncifcrf.gov/). Pathway analysis was carried out using Ingenuity Pathway Analysis (Ingenuity Systems, www.ingenuity.com).
smiles,measurement,setting,value
OC[C@H]1O[C@@H](n2cnc3c(O)ncnc32)[C@H](O)[C@@H]1O [inosine],"Signal Intensity, LOC500629","ILMN_61521, inosine after stroke",946
same,"Fold-Induction Stroke, ino vs. cntrl, LOC500137",ILMN_61607,0.58
same,"Signal Intensity, LOC500137","ILMN_61607, inosine after stroke",454
same,"Fold-Induction Stroke, ino vs. cntrl, Slc6a15",ILMN_61840,0.43
same,"Signal Intensity, Slc6a15","ILMN_61840, inosine after stroke",1093
same,"Fold-Induction Stroke, ino vs. cntrl, Bpnt1",ILMN_62095,0.70
same,"Signal Intensity, Bpnt1","ILMN_62095, inosine after stroke",283
same,Fold-induction CSMNs: Ftl1,"ILMN_62100, over and above inosine's effect of decreasing stroke-induced changes",1.74 fold
same,"Fold-Induction Stroke, ino vs. cntrl, Ddx1",ILMN_62325,0.57
same,"Signal Intensity, Ddx1","ILMN_62325, inosine after stroke",3553
same,Fold-induction CSMNs: Timp1,"ILMN_62559, over and above inosine's effect of decreasing stroke-induced changes",3.74 fold
same,"Fold-Induction Stroke, ino vs. cntrl, Rab18",ILMN_62620,0.76
same,"Signal Intensity, Rab18","ILMN_62620, inosine after stroke",2230
same,Fold-induction CSMNs: Eif4ebp1,"ILMN_62651, over and above inosine's effect of decreasing stroke-induced changes",1.86 fold
same,"Fold-Induction Stroke, ino vs. cntrl, Grinl1a",ILMN_62918,0.66
same,"Signal Intensity, Grinl1a","ILMN_62918, inosine after stroke",667
same,"Fold-Induction Stroke, ino vs. cntrl, Ppp1cb",ILMN_62999,0.42
same,"Signal Intensity, Ppp1cb","ILMN_62999, inosine after stroke",940
same,"Fold-Induction Stroke, ino vs. cntrl, LOC302559",ILMN_63077,0.89
same,"Signal Intensity, LOC302559","ILMN_63077, inosine after stroke",1031
same,"Fold-Induction Stroke, ino vs. cntrl, LOC366673",ILMN_63297,0.60
same,"Signal Intensity, LOC366673","ILMN_63297, inosine after stroke",298
same,"Fold-Induction Stroke, ino vs. cntrl, Rcn2",ILMN_63299,0.60
same,"Signal Intensity, Rcn2","ILMN_63299, inosine after stroke",442
same,"Fold-Induction Stroke, ino vs. cntrl, Gtl6",ILMN_63474,0.51
same,"Signal Intensity, Gtl6","ILMN_63474, inosine after stroke",302
same,"Fold-Induction, complement cascade gene C2","ILMN_63608, LCM-captured CSMNs contralateral a stroke",2.93 fold
same,"Fold-Induction Stroke, ino vs. cntrl, Cdc91l1",ILMN_63884,0.82
same,"Signal Intensity, Cdc91l1","ILMN_63884, inosine after stroke",529
same,"Fold-Induction Stroke, ino vs. cntrl, LOC306428",ILMN_63947,0.42
same,"Signal Intensity, LOC306428","ILMN_63947, inosine after stroke",507
same,"Fold-Induction Stroke, ino vs. cntrl, LOC500436",ILMN_64006,0.48
same,"Signal Intensity, LOC500436","ILMN_64006, inosine after stroke",1871
same,"Fold-Induction Stroke, ino vs. cntrl, LOC366411",ILMN_64007,0.51
same,"Signal Intensity, LOC366411","ILMN_64007, inosine after stroke",295
same,"Fold-Induction Stroke, ino vs. cntrl, Bcl10",ILMN_64237,0.84
same,"Signal Intensity, Bcl10","ILMN_64237, inosine after stroke",723
same,"Fold-Induction Stroke, ino vs. cntrl, Magi3",ILMN_64781,0.79
same,"Signal Intensity, Magi3","ILMN_64781, inosine after stroke",472
same,"Fold-Induction Stroke, ino vs. cntrl, Rtn4",ILMN_64945,0.57
same,"Signal Intensity, Rtn4","ILMN_64945, inosine after stroke",6518
same,"Fold-Induction Stroke, ino vs. cntrl, LOC500501",ILMN_65062,0.79
same,"Signal Intensity, LOC500501","ILMN_65062, inosine after stroke",958
same,"Fold-Induction Stroke, ino vs. cntrl, LOC287212",ILMN_65170,0.60
same,"Signal Intensity, LOC287212","ILMN_65170, inosine after stroke",1634
same,"Fold-Induction Stroke, ino vs. cntrl, LOC499328",ILMN_65309,0.53
same,"Signal Intensity, LOC499328","ILMN_65309, inosine after stroke",899
same,"Fold-Induction Stroke, ino vs. cntrl, Psmb5",ILMN_65450,0.65
same,"Signal Intensity, Psmb5","ILMN_65450, inosine after stroke",2709
same,"Fold-Induction Stroke, ino vs. cntrl, Hnrpf",ILMN_65510,0.86
same,"Signal Intensity, Hnrpf","ILMN_65510, inosine after stroke",1922
same,"Fold-Induction Stroke, ino vs. cntrl, Psma7",ILMN_65587,0.62
same,"Signal Intensity, Psma7","ILMN_65587, inosine after stroke",2058
same,"Fold-Induction Stroke, ino vs. cntrl, LOC497663",ILMN_65610,0.90
same,"Signal Intensity, LOC497663","ILMN_65610, inosine after stroke",416
same,"Fold-Induction Stroke, ino vs. cntrl, Pafah1b2",ILMN_65657,0.56
same,"Signal Intensity, Pafah1b2","ILMN_65657, inosine after stroke",411
same,"Fold-Induction Stroke, ino vs. cntrl, LOC294046",ILMN_65667,0.55
same,"Signal Intensity, LOC294046","ILMN_65667, inosine after stroke",2096
same,"Fold-Induction Stroke, ino vs. cntrl, Rchy1",ILMN_65668,0.77
same,"Signal Intensity, Rchy1","ILMN_65668, inosine after stroke",416
same,"Fold-Induction Stroke, ino vs. cntrl, LOC501181",ILMN_65702,0.49
same,"Signal Intensity, LOC501181","ILMN_65702, inosine after stroke",268
same,"Fold-Induction Stroke, ino vs. cntrl, Mal",ILMN_65814,0.40
same,"Signal Intensity, Mal","ILMN_65814, inosine after stroke",465
same,"Fold-Induction Stroke, ino vs. cntrl, MGC93921",ILMN_65993,0.69
same,"Signal Intensity, MGC93921","ILMN_65993, inosine after stroke",845
same,"Fold-Induction Stroke, ino vs. cntrl, LOC299179",ILMN_66036,0.76
same,"Signal Intensity, LOC299179","ILMN_66036, inosine after stroke",385
same,"Fold-Induction Stroke, ino vs. cntrl, LOC317232",ILMN_66272,0.70
same,"Signal Intensity, LOC317232","ILMN_66272, inosine after stroke",5211
same,"Fold-Induction Stroke, ino vs. cntrl, Spnb4",ILMN_66300,0.72
